Values quoted from earlier work as cited in patent US20090214462A1, “COCKCROACH JELLY BAIT” (priority 2004, published 2009).

System: cockroaches
Details: kill by intake; general statement

Structure (SMILES): OB(O)O [Boric acid]
- Time until cockroaches die after intake: one to eight

Structure (SMILES): CCOP(=S)(OCC)Oc1nc(Cl)c(Cl)cc1Cl [Chlorpyrifos]
- Time until cockroaches die after intake: 2 to 3 days
